Results reported in patent publication US12606561B2, “Substituted pyrazolo[1,5-a][1,3,5]triazines as CDK inhibitors” (QURIENT CO., LTD., priority 2018, dated 2026).

Tests used:
[1] = biological target: T1, CDK1/Cyclin B (Homo sapiens, UniProt P06493); experiment: Enzymatic assay for CDK1 (LANCE Ultra kinase assay, FRET based); assay type: biochemical; settings: ATP at Km; read-out: CDK1 enzymatic activity IC50
T1 construct: purchased Invitrogen PR4768C
In short: (§1)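 Inhibition of purified CDK/cyclin complexes was measured with ATP at its Km, using a ULight-labeled peptide substrate. Substrate phosphorylation was detected by FRET with a Europium-labeled anti-phospho-antibody.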

[2] = biological target: T2, CDK2/Cyclin A (Homo sapiens, UniProt P24941); experiment: Enzymatic assay for CDK2 (LANCE Ultra kinase assay, FRET based); assay type: biochemical; settings: ATP at Km
T2 construct: purchased Invitrogen PV6290
In short: (§2)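 TR-FRET kinase assay at ATP Km with ULight-MBP peptide (68 nM) and Eu-anti-phospho-MBP antibody; CDK2/Cyclin A at […], CDK5/p25 at […]. 8-dose 4-fold compound dilutions; 60 min kinase reaction at 23° C., EDTA stop, 60 min detection, read at 615/665 nm.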

[3] = biological target: T3, CDK5/p25 (Homo sapiens, UniProt Q00535); experiment: Enzymatic assay for CDK5 (LANCE Ultra kinase assay, FRET based); assay type: biochemical; settings: ATP at Km
T3 construct: purchased Invitrogen PR8543B
In short: as §2

[4] = biological target: T4, CDK7/Cyclin H/MNAT1 (Homo sapiens, UniProt P50613); experiment: Enzymatic assay for CDK7 (LANCE Ultra kinase assay, FRET based); assay type: biochemical; settings: for IC50: ATP at Km
T4 construct: purchased Invitrogen PR6749B
In short: as §1

[5] = tested on: H460; experiment: Cellular H460 viability assay (CellTiter-Glo, 72 hours); assay type: cell-based; settings: Homo sapiens, NCI-H460; H460 cells
Protocol: All cell lines were routinely tested for mycoplasma.
To effect of the CDK7 inhibitor to inhibit the growth of target cancer cells, viability assay were conducted a 72 hour time period. Briefly, the candidate cell line was plated in 96 well plate at the following density of cells respectively. 1×10^4 cells/well for MV4-11, 5×10^3 for H460 and OVCAR-3, and 1×10^3 for A2780. […] DMSO solvent without compound served as a control and final DMSO concentration lest than 0.1%. After 72 hours of incubation at 37° C., 5% CO2 incubator, cells were analyzed for the viability using the CellTiter-Glo Luminescent Cell Viability Assay (Promega, Cat #G7570). All viability assays were performed in duplicate and Luminescence was read using an Envision (Perkin Elmer, USA). Data was analyzed using XLfit software.

[6] = tested on: MV4-11; experiment: Cellular MV4-11 viability assay (CellTiter-Glo, 72 hours); assay type: cell-based; settings: Homo sapiens; MV4-11 cells
In short: (§3)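 Cells grown in RPMI-1640 with 10% FBS were seeded at 1×10^4/well (MV4-11), 5×10^3 (OVCAR-3) or 1×10^3 (A2780), then dosed 24 h later with compound at 0.0015 uM to 10 uM, DMSO <0.1%. Viability was read by CellTiter-Glo luminescence after 72 h at 37° C, in duplicate.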

[7] = tested on: A2780; experiment: A2780 viability assay (CellTiter-Glo, 72 hours); assay type: cell-based; settings: Homo sapiens; A2780 cells
In short: as §3

[8] = tested on: OVCAR-3; experiment: OVCAR-3 viability assay (CellTiter-Glo, 72 hours); assay type: cell-based; settings: Homo sapiens; OVCAR-3 cells
In short: as §3

T3 sequence (Q00535 whole entry): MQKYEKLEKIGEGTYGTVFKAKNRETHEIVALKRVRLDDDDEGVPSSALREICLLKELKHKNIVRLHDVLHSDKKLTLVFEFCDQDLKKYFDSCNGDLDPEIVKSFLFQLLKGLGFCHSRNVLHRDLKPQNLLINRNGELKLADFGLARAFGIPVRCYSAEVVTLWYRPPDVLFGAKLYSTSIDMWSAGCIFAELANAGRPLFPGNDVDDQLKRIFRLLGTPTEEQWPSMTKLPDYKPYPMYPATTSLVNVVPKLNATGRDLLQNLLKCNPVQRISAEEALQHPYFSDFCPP
T3 sequence (Q15078 99-307 partner limits assumed): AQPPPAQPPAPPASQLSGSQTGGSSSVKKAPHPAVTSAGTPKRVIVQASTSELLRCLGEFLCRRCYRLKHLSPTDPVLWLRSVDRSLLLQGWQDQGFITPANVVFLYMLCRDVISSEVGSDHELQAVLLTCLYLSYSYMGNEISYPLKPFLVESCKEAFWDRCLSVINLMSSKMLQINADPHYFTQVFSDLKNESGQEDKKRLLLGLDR
T4 sequence (P50613 whole entry): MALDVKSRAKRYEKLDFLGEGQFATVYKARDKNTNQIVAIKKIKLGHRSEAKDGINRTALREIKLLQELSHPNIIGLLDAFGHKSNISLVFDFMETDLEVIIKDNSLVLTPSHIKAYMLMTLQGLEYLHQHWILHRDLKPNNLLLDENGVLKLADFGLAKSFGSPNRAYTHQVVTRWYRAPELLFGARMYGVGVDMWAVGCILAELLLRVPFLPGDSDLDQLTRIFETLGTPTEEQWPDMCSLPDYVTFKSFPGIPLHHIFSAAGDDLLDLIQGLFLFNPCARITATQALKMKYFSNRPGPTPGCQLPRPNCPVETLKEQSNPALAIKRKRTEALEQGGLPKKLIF
T4 sequence (P51946 whole entry partner): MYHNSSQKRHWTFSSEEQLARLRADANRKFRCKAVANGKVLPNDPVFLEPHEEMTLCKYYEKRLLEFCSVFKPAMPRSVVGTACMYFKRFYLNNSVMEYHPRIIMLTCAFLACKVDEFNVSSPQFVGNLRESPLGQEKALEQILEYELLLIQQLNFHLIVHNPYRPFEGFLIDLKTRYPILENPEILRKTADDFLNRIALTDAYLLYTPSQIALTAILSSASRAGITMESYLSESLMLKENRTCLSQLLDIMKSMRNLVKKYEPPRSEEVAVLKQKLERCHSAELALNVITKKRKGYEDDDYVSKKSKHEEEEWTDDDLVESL
T4 sequence (P51948 whole entry partner): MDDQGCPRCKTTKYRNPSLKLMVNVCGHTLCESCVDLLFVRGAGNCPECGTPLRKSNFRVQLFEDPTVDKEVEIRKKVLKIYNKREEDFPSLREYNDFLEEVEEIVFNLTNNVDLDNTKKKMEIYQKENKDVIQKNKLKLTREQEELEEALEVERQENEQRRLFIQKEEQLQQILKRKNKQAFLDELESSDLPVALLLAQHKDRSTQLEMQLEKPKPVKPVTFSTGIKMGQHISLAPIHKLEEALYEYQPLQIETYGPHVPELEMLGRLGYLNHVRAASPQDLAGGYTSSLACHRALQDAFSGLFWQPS
T1 sequence (P06493 whole entry): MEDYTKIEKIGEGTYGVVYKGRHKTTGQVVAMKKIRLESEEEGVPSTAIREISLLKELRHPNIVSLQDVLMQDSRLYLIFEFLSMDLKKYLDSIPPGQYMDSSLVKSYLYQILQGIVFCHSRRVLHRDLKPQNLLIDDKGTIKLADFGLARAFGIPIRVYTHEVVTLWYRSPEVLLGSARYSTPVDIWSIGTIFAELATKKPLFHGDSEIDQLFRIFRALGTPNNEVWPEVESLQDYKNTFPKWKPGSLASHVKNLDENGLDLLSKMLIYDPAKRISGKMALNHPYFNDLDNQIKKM
T1 sequence (P14635 whole entry partner): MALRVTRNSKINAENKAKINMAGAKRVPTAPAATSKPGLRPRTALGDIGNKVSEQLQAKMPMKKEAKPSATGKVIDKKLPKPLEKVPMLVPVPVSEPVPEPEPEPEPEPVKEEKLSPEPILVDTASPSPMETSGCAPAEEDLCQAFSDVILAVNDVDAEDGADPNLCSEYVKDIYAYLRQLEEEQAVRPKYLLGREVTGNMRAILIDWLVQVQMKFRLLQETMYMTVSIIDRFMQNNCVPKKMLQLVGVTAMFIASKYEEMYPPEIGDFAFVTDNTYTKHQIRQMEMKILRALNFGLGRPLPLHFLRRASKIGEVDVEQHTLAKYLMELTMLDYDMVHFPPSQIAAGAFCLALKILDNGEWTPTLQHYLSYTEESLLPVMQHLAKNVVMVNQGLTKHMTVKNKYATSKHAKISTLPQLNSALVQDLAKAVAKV

| SMILES | IC50 [1] [µM] | IC50 [2] [µM] | IC50 [3] [µM] | IC50 [4] [µM] | CDK1/CDK7: Selectivity of CDK7 inhibition over CDK1 inhibition [4] | CDK2/CDK7: Selectivity of CDK7 inhibition over CDK2 inhibition [4] | CDK5/CDK7: Selectivity of CDK7 inhibition over CDK5 inhibition [4] | IC50 [5] [µM] | IC50 [6] [µM] | IC50 [7] [µM] | IC50 [8] [µM] |
| --- | --- | --- | --- | --- | --- | --- | --- | --- | --- | --- | --- |
| CC(C)c1cnn2c(NCc3ccccc3-c3nccc4cc(NC(=O)/C=C/CN(C)C)ccc34)nc(N[C@H]3CC[C@H](O)CC3)nc12 [Compound 27] | > 1 | > 1 | > 1 | < 0.1 | B (B indicates 50 < [fold] ≤ 500) | B (B indicates 50 < [fold] ≤ 500) | B (B indicates 50 < [fold] ≤ 500) | < 1 | < 1 | < 1 | < 1 |
| CC(C)c1cnn2c(NCc3ccccc3-c3ccc4cccc(NC(=O)/C=C/CN(C)C)c4n3)nc(N3CCC(N)CC3)nc12 [Compound 20] | > 1 | > 1 | 0.1 to 1 | < 0.1 | B (B indicates 50 < [fold] ≤ 500) | A (A indicates [fold] > 500) | B (B indicates 50 < [fold] ≤ 500) | < 1 | < 1 | < 1 | < 1 |
| CC(C)c1cnn2c(NCc3ccccc3-c3nccc4cc(NC(=O)/C=C/CN(C)C)ccc34)nc(NC[C@H]3CCNC[C@@H]3O)nc12 [Compound 26] | > 1 | > 1 | > 1 | < 0.1 | A (A indicates [fold] > 500) | A (A indicates [fold] > 500) | A (A indicates [fold] > 500) | < 1 | < 1 | < 1 | < 1 |
| CC(C)c1cnn2c(NCc3ccccc3-c3cc4cccc(NC(=O)/C=C/CN(C)C)c4[nH]3)nc(N3CCC(N)CC3)nc12 [Compound 25] | 0.1 to 1 | 0.1 to 1 | < 0.1 | < 0.1 | B (B indicates 50 < [fold] ≤ 500) | C (C indicates [fold] ≤ 50) | C (C indicates [fold] ≤ 50) | < 1 | < 1 | < 1 | < 1 |
| CC(C)c1cnn2c(NCc3cccc(-c4cc5cc(NC(=O)/C=C/CN(C)C)ccc5[nH]4)c3)nc(N3CCC(N)CC3)nc12 [Compound 23] | > 1 | > 1 | 0.1 to 1 | < 0.1 | B (B indicates 50 < [fold] ≤ 500) | C (C indicates [fold] ≤ 50) | C (C indicates [fold] ≤ 50) | 1 to 10 | – | – | – |
| CC(C)c1cnn2c(NCc3cccc4ccc(NC(=O)/C=C/CN(C)C)nc34)nc(N3CCC(N)CC3)nc12 [Compound 12] | > 1 | > 1 | 0.1 to 1 | < 0.1 | A (A indicates [fold] > 500) | B (B indicates 50 < [fold] ≤ 500) | C (C indicates [fold] ≤ 50) | < 1 | – | – | – |
| CC(C)c1cnn2c(NCc3cccc(Oc4ccc(Cl)c(NC(=O)/C=C/CN(C)C)c4)c3)nc(N3CCC(N)CC3)nc12 [Compound 15] | > 1 | 0.1 to 1 | 0.1 to 1 | < 0.1 | A (A indicates [fold] > 500) | B (B indicates 50 < [fold] ≤ 500) | B (B indicates 50 < [fold] ≤ 500) | < 1 | – | – | – |
| CC(C)c1cnn2c(NCc3cccc(Oc4cccc(NC(=O)/C=C/CN(C)C)c4)c3)nc(N3CCC(N)CC3)nc12 [Compound 2] | 0.1 to 1 | 0.1 to 1 | 0.1 to 1 | < 0.1 | B (B indicates 50 < [fold] ≤ 500) | B (B indicates 50 < [fold] ≤ 500) | C (C indicates [fold] ≤ 50) | < 1 | – | – | – |
| CC(C)c1cnn2c(NCc3cccc(NC4CCCN(C(=O)/C=C/CN(C)C)CC4)c3)nc(N3CCC(N)CC3)nc12 (racemic) [Compound 21] | > 1 | > 1 | 0.1 to 1 | < 0.1 | A (A indicates [fold] > 500) | B (B indicates 50 < [fold] ≤ 500) | B (B indicates 50 < [fold] ≤ 500) | 1 to 10 | – | – | – |
| CC(C)c1cnn2c(NCc3ccccc3-n3cc4cc(NC(=O)/C=C/CN(C)C)ccc4n3)nc(N3CCC(N)CC3)nc12 [Compound 24] | 0.1 to 1 | 0.1 to 1 | 0.1 to 1 | < 0.1 | B (B indicates 50 < [fold] ≤ 500) | C (C indicates [fold] ≤ 50) | C (C indicates [fold] ≤ 50) | 1 to 10 | – | – | – |
| CC(C)c1cnn2c(NCc3ccccc3Oc3ccc(NC(=O)/C=C/CN(C)C)cc3)nc(N3CCC(N)CC3)nc12 [Compound 10] | > 1 | 0.1 to 1 | 0.1 to 1 | < 0.1 | B (B indicates 50 < [fold] ≤ 500) | B (B indicates 50 < [fold] ≤ 500) | C (C indicates [fold] ≤ 50) | < 1 | – | – | – |
| C=CC(=O)Nc1cccc(Oc2cccc(CNc3nc(N4CCC(N)CC4)nc4c(C(C)C)cnn34)c2)c1 [Compound 5] | > 1 | 0.1 to 1 | 0.1 to 1 | < 0.1 | B (B indicates 50 < [fold] ≤ 500) | B (B indicates 50 < [fold] ≤ 500) | C (C indicates [fold] ≤ 50) | < 1 | – | – | – |
| CC(C)c1cnn2c(NCc3ccccc3-n3cc4cccc(NC(=O)/C=C/CN(C)C)c4n3)nc(N3CCC(N)CC3)nc12 [Compound 16] | > 1 | 0.1 to 1 | 0.1 to 1 | < 0.1 | B (B indicates 50 < [fold] ≤ 500) | B (B indicates 50 < [fold] ≤ 500) | C (C indicates [fold] ≤ 50) | < 1 | – | – | – |
